Data from US9844546B2, “Antibody against human HIF hydroxylase” (OXFORD UNIVERSITY INNOVATION LIMITED, priority 2001, dated 2017).

Experiments:
[1] = target: T1, HIF-1α/pVHL interaction (Homo sapiens, UniProt P40337); test: Polypeptide blocking assay of HIF-1α and pVHL.HA IVTT mixture, anti-HA immunoprecipitation; type: binding
T1 construct: made in house; host or cells: TNT rabbit reticulocyte lysate (Promega), in vitro transcription/translation
Method: Further studies were performed using synthetic polypeptides as inhibitors of the HIF-1α/pVHL interaction (23). […] Results for a series of polypeptides derived from this domain are summarized in FIG. 1B and implicate a similar minimal interaction domain. […] This polypeptide comprises HIF-1α polypeptide residues 556 to 574 and its ability to block binding following exposure to a variety of direct oxidation conditions was assessed.
We synthesized a polypeptide (HIF-1α residues 556-574), containing a trans-4-hydroxy-S-proline residue at position 564 (19:Pro564Hyp), since the trans-4-hydroxylation is the commonest enzymatic proline oxidation (25). A polypeptide blocking assay was carried out using the 19:Pro564Hyp modified polypeptide and, as a control, the unmodified polypeptide without the trans-4-hydroxylation (19:WT). The 19:WT polypeptide was either incubated with cell extract before the binding assay or was untreated. The 19:Pro564Hyp polypeptide was added to a mixture of HIF-1α and pVHL-HA IVTTs at a concentration of 1, 0.25, 0.05 or 0.01 μM and the cell extract treated or untreated 19:WT polypeptide at a concentration of 0.5 μM. Interaction of HIF-1α with pVHL was then assayed by anti-HA immunoprecipitation. […] A pVHL capture assay was then carried out using biotinylated synthetic polypeptides. The same polypeptides, 19:Pro564Hyp and 19:WT were assessed for the ability to capture wild type or mutant (Pro86His) pVHL. […] In both cases capture was specific for wild type, as opposed to mutant, pVHL.
• 1. G. L. Semenza, Genes Dev 14, 1983-91. (2000). • 2. N. V. Iyer, et al., Genes Dev. 12, 149-162 (1997). • 3. E. Maltepe, J. V. Schmidt, D. Baunoch, C. A. Bradfield, M. C. Simon, Nature 386, 403-407 (1997). • 4. G. L. Wang, B.-H. Jiang, E. A. Rue, G. L. Semenza, Proc. Natl. Acad. Sci. USA 92, 5510-5514 (1995). • 5. S. Salceda, J. Caro, J. Biol. Chem. 272, 22642-22647 (1997). • 6. L. E. Huang, J. Gu, M. Schau, H. F. Bunn, Proc. Natl. Acad. Sci. USA 95, 7987-7992 (1998). • 7. M. S. Wiesener, et al., Blood 92, 2260-2268 (1998). • 8. P. H. Maxwell, et al., Nature 399, 271-275 (1999). • 9. K. Iwai, et al., Proc. Natl. Acad. Sci. USA 96, 12436-12441 (1999). • 10. J. Lisztwan, G. Imbert, C. Wirbelauer, M. Gstaiger, W. Krek, Genes Dev 13, 1822-33 (1999). • 11. M. E. Cockman, et al., J Biol Chem (2000). • 12. M. Ohh, et al., Nat Cell Biol 2, 423-7. (2000). • 13. T. Kamura, et al., Proc Natl Acad Sci USA 97, 10430-5. (2000). • 14. K. Tanimoto, Y. Makino, T. Pereira, L. Poellinger, Embo J 19, 4298-309. (2000). • 15. M. A. Goldberg, S. P. Dunning, H. F. Bunn, Science 242, 1412-1415 (1988). • 16. G. L. Wang, G. L. Semenza, Blood 82, 3610-3615 (1993). • 17. G. L. Semenza, Cell 98, 281-284 (1999). • 18. Hypoxia (<0.1% oxygen) was obtained in a workstation with O2, CO2 and temperature control (Ruskinn Technologies, Leeds, UK). For hypoxic harvest, buffers were preincubated in the chamber overnight. RCC4-VHL.HA, labelling conditions and co-immunoprecipitation assays have been described previously (11); in the current study 12.5 μM MG132 was used for proteasomal inhibition. For standard harvest, the cells were removed from the chamber after hypoxic exposure, prior to cell lysis. Co-immunoprecipitation assays on all lysates were performed at 4° C. under ambient oxygen conditions. […] When programming in hypoxia, reaction mix was preincubated in the workstation for 10 minutes before addition of the DNA template. […]

[2] = tested on: collagen prolyl-hydroxylase (CPH); conditions: cited from earlier work
[3] = tested on: HIF hydroxylase (HPH activity); test: HIF hydroxylase (HPH) inhibition, statements of the description; type: biochemical
[4] = tested on: HIF; test: Induction of HIF in tissue culture by esterified equivalents; type: cell-based; conditions: In-vivo esterified equivalent
[5] = tested on: HIF-α prolyl-hydroxylase (HIF-PH) of cell extract; test: Modifying activity (HIF-PH) of cell extract on HIF substrate (Gal/HIF-1α549-582/VP16 or 19:WT), pVHL capture assay; type: biochemical, mammalian; conditions: for Disruption of HIF-VHL interaction: In-vitro inhibitor; for pVHL binding after treatment of Gal-Hif549-582-VP16 with cell extract in the presence of inhibitor: SDS-PAGE and autoradiography; for effect of pretreatment of extracts on modifying activity: clotrimazole 10 μM, methyl-viologen 1 mM, NADase 20 mU/ml
Method: The unlabelled HIF-1α substrate was immunopurified on beads, washed, and aliquots incubated under different test conditions in buffer or cell extract. After further washing, the beads were assayed for ability to interact with 35-S labelled pVHL IVTT (21) which was then visualised by fluorography.
The capture of labelled pVHL by different HIF substrates was monitored after exposure to various test conditions.
We went on to test a series of 2-oxoglutarate analogues which act as competitive inhibitors of this class of enzyme (29) for ability to inhibit HIF-PH as assessed by the ability of cell extracts to modify either HIF polypeptide (19:WT) or a HIF fusion protein (Gal/HIF-1α549-582/VP16) so as to promote pVHL capture. […] In one such experiment the effect of N-oxalylglycine on pVHL capture by a biotinylated HIF polypeptides as substrate was monitored. The WT:19 and 19:Pro564Hyp polypeptides described above were used as substrates. […] The effect of dimethyl-oxalyglycine on HIF-1α expression was also studied. HIF-1α immunoblot analysis of extracts of Hep3B and U2OS cells exposed to dimethyl-oxalylgylcine (0, 0.1 or 1.0 mM) for 6 hours was carried out. […]

T1 sequence (P40337 whole entry): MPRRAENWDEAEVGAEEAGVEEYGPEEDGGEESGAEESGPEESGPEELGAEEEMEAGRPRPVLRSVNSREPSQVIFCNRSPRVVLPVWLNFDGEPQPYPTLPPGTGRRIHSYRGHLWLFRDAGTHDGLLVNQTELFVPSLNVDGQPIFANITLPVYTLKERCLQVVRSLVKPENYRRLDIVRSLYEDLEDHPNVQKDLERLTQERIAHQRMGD

## 34 residue sequence encompassing amino acids 549-582: synthetic polypeptide, HIF-1α residues 549-582
[1]; cell extract supplemented with Fe(II)
  blocking of HIF-1α/pVHL interaction by polypeptide after exposure to cell extract: blocking activity was strikingly induced
[1]; untreated polypeptide
  blocking of HIF-1α/pVHL interaction by polypeptide not exposed to cell extract: unable to block interaction

## CC(NC(=O)C(=O)O)C(=O)O (racemic) [(RS)-N-oxaloalanine]
[2]
  inhibition of CPH: poor inhibitor

## CCOC(=O)c1ccnc(C(=O)OCC)c1 [2, 4 diethylpyridine dicarboxylate, 2,4-diethylpyridine dicarboxylate]
[3]
  inhibition of HIF hydroxylase / HPH: found not to inhibit HPH
[4]
  Induction of HIF in tissue culture: No
[2]
  inhibition of CPH: known CPH inhibitor

## O=C(O)c1ccnc(C(=O)O)c1 [2, 4 pyridine dicarboxylic acid]
[5]
  Disruption of HIF-VHL interaction: Yes

## CCOC(=O)c1ccc(C(=O)OCC)nc1 [2, 5 diethylpyridine dicarboxylate]
[4]
  Induction of HIF in tissue culture: No

## CCOC(=O)c1cccc(C(=O)OCC)n1 [2, 6 diethylpyridine dicarboxylate]
[4]
  Induction of HIF in tissue culture: No

## CC(C)[C@H](NC(=O)C(=O)O)C(=O)O [(S)-oxalovaline]
[3]
  inhibition of HIF hydroxylase / HPH: little or no activity

## COC(=O)CNC(=S)C(=O)OC [Is1]
[5]
  pVHL binding after treatment of Gal-Hif549-582-VP16 with cell extract in the presence of inhibitor: reduced pVHL binding

## O=C(O)CNC(=S)C(=O)O [Is3]
[5]
  pVHL binding after treatment of Gal-Hif549-582-VP16 with cell extract in the presence of inhibitor: reduced pVHL binding

## COCCNC(=O)c1ccncc1C(=O)NCCOC [Is8]
[5]
  pVHL binding after treatment of Gal-Hif549-582-VP16 with cell extract in the presence of inhibitor: reduced pVHL binding

## COC(=O)C(=O)NC(C)C(=O)OC [Methylmethoxalyl-D/L-alanine]
[4]
  Induction of HIF in tissue culture: No

## C[C@@H](NC(=O)C(=O)O)C(=O)O [N-oxalyl-2R-alanine]
[5]; N-oxalylglycine 0.2-1 mM, overcome by 5 mM 2-oxoglutarate
  inhibition of modifying activity of cell extract on 19:WT (pVHL capture): not
[3]
  inhibition of HIF hydroxylase / HPH: also an inhibitor

## CC(C)[C@H](NC(=O)C(=O)O)C(=O)O [NK80]
[5]
  Disruption of HIF-VHL interaction: No

## C[C@H](NC(=O)C(=O)O)C(=O)O [NK81, oxalyl L-alanine]
[5]
  Disruption of HIF-VHL interaction: Yes

## C[C@@H](NC(=O)C(=O)O)C(=O)O [NK82, oxalyl D-alanine]
[5]
  Disruption of HIF-VHL interaction: No

## O=C(O)CNC(=O)C(=O)O [NK87, oxalylglycine]
[5]
  Disruption of HIF-VHL interaction: Yes
  pVHL binding after treatment of Gal-Hif549-582-VP16 with cell extract in the presence of inhibitor: reduced binding of pVHL
[5]; plus additional 2-oxoglutarate
  pVHL binding after treatment with cell extract in the presence of inhibitor and additional 2-oxoglutarate: strong binding

## O=C(NO)c1ccccc1 [benzohydroxamic acid]
[5]
  pVHL binding after treatment of Gal-Hif549-582-VP16 with cell extract in the presence of inhibitor: reduced pVHL binding

## Clc1ccccc1C(c1ccccc1)(c1ccccc1)n1ccnc1 [clotrimazole, reference compound]
[5]
  effect of pretreatment of extracts on modifying activity: did not significantly affect activity

## CCOC(=O)c1ccc(O)c(O)c1 [ethyl dihydroxybenzoate]
[5]
  pVHL binding after treatment of Gal-Hif549-582-VP16 with cell extract in the presence of inhibitor: reduced pVHL binding

## N[C@@H](CCC(=O)N[C@@H](CS)C(=O)NCC(=O)O)C(=O)O [glutathione, gamma-glutamyl-cysteinyl-glycine]
[3]
  inhibition of HIF hydroxylase / HPH: inhibitors of HPH

## C[n+]1ccc(-c2cc[n+](C)cc2)cc1 [methyl-viologen, reference compound]
[5]
  effect of pretreatment of extracts on modifying activity: did not significantly affect activity
